In US7183320B2, “Benzoylsulfonamides and sulfonylbenzamidines for use as antitumour agents” (Eli Lilly and Company, priority 2002, dated 2007):
pIC50: −log10 of the molar value.

How the values were obtained:
HUMAN OVARIAN BG-1 = test: Early stage human ovarian BG-1 xenograft (Table IX); type: in vivo; conditions: Balb/C SCID female mice
Text: (§1) Conventional Murine Tumor and Human Tumor Xenouraft Assays
(§2) Inhibition of tumors transplanted into mice is an accepted procedure for studying the efficacy of antitumor agents (Corbett, et al., In vivo Methods for Screening and Preclinical Testing; Use of rodent solid tumors for drug discovery., In: Anticancer Drug Development Guide: Preclinical Screening, Clinical Trials, and Approval, B. Teicher (ed), Humana Press Inc., Totowa, N.J., Chapter 5, pages 75–99 (1997); (Corbett, et al., Int., J. Parmacog., 33, Supplement, 102–122 (1995)). Murine tumors or human xenographs were implanted essentially as described by Corbett in In vivo Methods for Screening and Preclimical Testing; Use of rodent solid tumors for drug discovery. Briefly, the murine tumor or human xenograph was implanted subcutaneously using either 12-gauge trocar implants or counted number of cells. The location for the trocar insertion is midway between the axillary and inguinal region along the side of the mouse. The trocar is slipped approximately ¾ of an inch subcutaneously up toward the axilla before discharging the tumor fragment, and pinching the skin as the trocar is removed., Alternatively, human tumor cells prepared from a […] of donor tumors (5×10^6 cells) were implanted subcutaneously in a hind-leg of a male or female nude mouse (Charles River). Either a test compound in vehicle or vehicle alone was administered by intravenous bolus injection (iv), intraperitoneal injection (ip), or oral gavage (po). Each treatment group, as well as a group of untreated control animals, consisted of five animals per group in each experiment. Subcutaneous tumor response was monitored by tumor volume measurement performed twice each week over the course of the experiment (60–120 days). Body weights were taken as a general measure of toxicity. The subcutaneous tumor data were analyzed by determining the median tumor weight for each treatment group over the course of the experiment and calculating the tumor growth delay as the difference in days for the treatment versus the control tumors to reach a volume of either 500 or 1000 mm^3.
(§3) The compound of Example 110 was tested against a variety of murine and human tumors substantially as described supra. The parameters measured in each experiment are summarized in the following paragraphs. • Tumor Weight(mg)=(a×b^2)/2 where a=tumor length (mm) and b=tumor width (mm). • Tumor Growth Delay=T−C where T is the median time (days) required for the treatment group tumors to reach a predetermined size, and C is the median time (days) for the control group tumors to reach the same size. Tumor-free survivors are excluded from this calculation, and are tabulated separately (Tumor Free).
(§4) [formula] • where Tumor Growth Delay is as previously defined and Td is tumor volume doubling time (days), estimated from the best fit straight line from a log-linear growth plot of the control group of tumors in exponential growth (100–800 mg range) • % T/C mass—The treatment and control groups are measured when the control group tumors reach approximately 700 to 1200 mg in size (median group). The median tumor weight of each group is determined (including zeros). The T/C value in percent is an indication of antitumor effectiveness. A T/C≦42% is considered significant antitumor activity. A T/C<10% is considered to indicate highly significant antitumor activity. • Body Weight Loss Nadir—A body weight loss nadir (mean of group) of greater than 20% or drug deaths greater than 20% are considered to indicate an excessively toxic dosage in single course trials. • Activity Rating—the Activity Rating is derived from the Log Kill according to the following table: […]

[1] = test system: TAXOL RESISTANT HUMAN COLON ADENOCARCINOMA #15/MDR; test: Early stage taxol resistant human colon adenocarcinoma #15/MDR xenograft (Table XII); type: in vivo; conditions: total dose 500 mg/kg: 100 mg/kg/injection IV on days 3–5 and 13–14; Balb/C SCID female mice
Text: as §1, §2, §3, §4

[2] = test system: MURINE COLON ADENOCARCINOMA-38; test: Early stage murine colon adenocarcinoma-38 (Table II); type: in vivo; conditions: BDF1 male mice
Text: as §1, §2, §3, §4

[3] = test system: HCT116 colon carcinoma cells; test: HCT116 colon carcinoma cell growth inhibition (WST-1, 72 hr); type: cell-based, human; conditions: Homo sapiens, HCT-116, 72 hr exposure
Experimental: HCT116 Colon Carcinoma Cell Growth Inhibition
HCT116 colon carcinoma cells were grown monolayer culture in RPMI 1640 medium supplemented with 10% fetal bovine serum and 1% penicillin-streptomycin (GibcoBRL, Grand Island, N.Y.). HCT116 cells in exponential growth phase were exposed to various concentrations of the test compounds at 37° C. for 72 hr in 5% carbon dioxide/air. After exposure to the agent, the cells were washed with 0.9% phosphate buffered saline. Growth inhibition was determined using WST-1 cell proliferation reagent as described above. The results are expressed as the growth fraction of treated cells compared with control cultures. Representative compounds of the present invention were tested for efficacy against the human colon HCT116 tumor cells.

HUMAN PROSTATE LNCaP = test: Early stage human prostate LNCaP xenograft (Table VII); type: in vivo; conditions: total dose 840 mg/kg: 140 mg/kg/injection IV on days 3, 5, 7, 9, 10, and 11, Balb/C SCID female mice
Text: as §1, §2, §3, §4

[4] = total dose 600 mg/kg: 100 mg/kg/injection IV on days 3–5 and 9–11
[5] = total dose 870 mg/kg: 145 mg/kg/injection IV on days 3–5 and 9–11
[6] = total dose 272 mg/kg IV: 20 mg/kg day 3, 40 day 4, 106 mg/kg/injection QD days 5–6
[7] = total dose 920 mg/kg IV: 40 mg/kg day 3, 80 day 4, 160 mg/kg/injection QD days 5–9
[8] = total dose 1200 mg/kg IV: 80 mg/kg day 3, 160 day 4, 240 day 5, 120 mg/kg/injection BID days 7–9

O=C(NS(=O)(=O)c1ccccc1)c1ccc(Cl)cc1Cl [Example 110, N-[2,4-dichlorobenzoyl]phenylsulfonamide]
% BODY WT LOSS AT NADIR (HUMAN OVARIAN BG-1; [4]): −3.0% | % T/C MASS (HUMAN OVARIAN BG-1; [4]): 0% | ACTIVITY RATING (HUMAN OVARIAN BG-1; [4]): ++++ (HIGHLY ACTIVE >2.8) | DRUG DEATHS (HUMAN OVARIAN BG-1; [4]): 0/5 | GROWTH DELAY (HUMAN OVARIAN BG-1; [4]): 30 days | LOG KILL (HUMAN OVARIAN BG-1; [4]): 3.6 | TUMOR FREE AT DAY 176 (HUMAN OVARIAN BG-1; [4]): 0/5 | % BODY WT LOSS AT NADIR (HUMAN OVARIAN BG-1; [5]): −2.0% | % T/C MASS (HUMAN OVARIAN BG-1; [5]): 0% | ACTIVITY RATING (HUMAN OVARIAN BG-1; [5]): ++++ (HIGHLY ACTIVE >2.8) | DRUG DEATHS (HUMAN OVARIAN BG-1; [5]): 0/5 | GROWTH DELAY (HUMAN OVARIAN BG-1; [5]): 30.5 days | LOG KILL (HUMAN OVARIAN BG-1; [5]): 3.7 | TUMOR FREE AT DAY 176 (HUMAN OVARIAN BG-1; [5]): 1/5 | % BODY WT LOSS AT NADIR [1]: +2.1% ^ | % T/C MASS [1]: 10% | ACTIVITY RATING [1]: ++ (1.3–1.9) | DRUG DEATHS [1]: 0/5 | GROWTH DELAY [1]: 11 days | LOG KILL [1]: 1.4 | TUMOR FREE AT DAY 38 [1]: 0/5 | % BODY WT LOSS AT NADIR [2, 6]: +3.1% | % T/C MASS [2, 6]: 0% | ACTIVITY RATING [2, 6]: ++++ (HIGHLY ACTIVE >2.8) | DRUG DEATHS [2, 6]: 0/5 | GROWTH DELAY (DAYS) [2, 6]: All cures | LOG KILL [2, 6]: >4.5 | TUMOR FREE AT DAY 144 [2, 6]: 5/5 | % BODY WT LOSS AT NADIR [2, 7]: +7.7% | % T/C MASS [2, 7]: 0% | ACTIVITY RATING [2, 7]: ++++ (HIGHLY ACTIVE >2.8) | DRUG DEATHS [2, 7]: 0/5 | GROWTH DELAY (DAYS) [2, 7]: All cures | LOG KILL [2, 7]: >4.5 | TUMOR FREE AT DAY 144 [2, 7]: 5/5 | % BODY WT LOSS AT NADIR [2, 8]: −5.2% | % T/C MASS [2, 8]: 0% | ACTIVITY RATING [2, 8]: ++++ (HIGHLY ACTIVE >2.8) | GROWTH DELAY (DAYS) [2, 8]: All cures | LOG KILL [2, 8]: >4.5 | TUMOR FREE AT DAY 144 [2, 8]: 6/6 | pIC50 [3]: 5.46 | % BODY WT LOSS AT NADIR (HUMAN PROSTATE LNCaP): +5.6% | % T/C MASS (HUMAN PROSTATE LNCaP): 0% | ACTIVITY RATING (HUMAN PROSTATE LNCaP): ++++ (HIGHLY ACTIVE >2.8) | DRUG DEATHS (HUMAN PROSTATE LNCaP): 0/5 | TUMOR FREE AT DAY 185 (HUMAN PROSTATE LNCaP): 4/5 | GROWTH DELAY (DAYS) (HUMAN PROSTATE LNCaP; one mouse): 60^b DAYS | LOG KILL (HUMAN PROSTATE LNCaP; one mouse): 7.2^b
